Source: ChEMBL document CHEMBL4177750, “Imidazopyrazinones (IPYs): Non-Quinolone Bacterial Topoisomerase Inhibitors Showing Partial Cross-Resistance with Quinolones” (J Med Chem, 2018)
≈ marks a conversion by molar mass, not a printed value. Calls of active or inactive are those of the source. The calls are words filed in the database; no cut-off is given here.

Legend:
[1] = test system: Escherichia coli; assay: Antibacterial activity against hyperpermeable Escherichia coli D22 harboring LpxC mutant after 20 to 22 hrs
[2] = test system: Mus musculus; assay: Toxicity in Swiss mouse at 30 mg/kg, iv bid administered as bolus dose every 2 hrs measured daily for 5 days; assay type: organism-based; conditions: in vivo, 120 h
[3] = test system: L5178Y; assay: Genotoxicity in mouse L5178Y cells after 3 hrs in presence of S9 fraction by micronucleus test; assay type: toxicity, cell-based; conditions: s9, 3 h
[4] = test system: Escherichia coli; assay: Antibacterial activity against tolC-deficient Escherichia coli K-12 MG1655 after 20 to 22 hrs; assay type: functional; conditions: K-12 substr. MG1655
[5] = test system: Klebsiella pneumoniae; assay: Antibacterial activity against Klebsiella pneumoniae 1161486 after 20 to 22 hrs; assay type: functional
[6] = test system: Escherichia coli; assay: Antibacterial activity against Escherichia coli ATCC 35218 in Swiss mouse septicemia model assessed as decrease in bacterial burden in blood at 30 mg/kg, iv bid administered at 1 and 3 hrs post infection measured at 4 hrs relative to vehicle-treated control; assay type: functional
[7] = Drug metabolism in mouse liver microsomes at 5 uM after 20 mins in presence of NADPH; assay type: ADME, microsome; conditions: read-out: Drug metabolism
[8] = biological target: T1, Cytochrome P450 3A4 (Homo sapiens, UniProt P08684); assay: Inhibition of CYP3A4-mediated midazolam metabolism in human liver microsomes
[9] = test system: Escherichia coli; assay: Antibacterial activity against Escherichia coli ATCC 35218 in Swiss mouse septicemia model assessed as decrease in bacterial burden in blood at 15 mg/kg, iv bid administered at 1 and 3 hrs post infection measured at 4 hrs relative to vehicle-treated control; assay type: functional
[10] = test system: Acinetobacter baumannii; assay: Antibacterial activity against Acinetobacter baumannii BM4652 harboring adeABC/adeIJK deletion mutant after 20 to 22 hrs; assay type: functional
[11] = Metabolic stability in mouse plasma at 1 uM after 4 hrs; assay type: ADME, cell-free; conditions: read-out: Stability
[12] = biological target: Voltage-gated inwardly rectifying potassium channel KCNH2 (Homo sapiens, UniProt Q12809); assay: Inhibition of human ERG transfected in CHO cells by patch clamp method
[13] = test system: Staphylococcus aureus; assay: Antibacterial activity against methicillin-resistant Staphylococcus aureus ATCC 33592 after 20 to 22 hrs in presence of 50% mouse serum; assay type: functional, organism-based
[14] = test system: Staphylococcus aureus; assay: Antibacterial activity against methicillin-resistant Staphylococcus aureus ATCC 33592 after 20 to 22 hrs; assay type: functional
[15] = Apparent permeability across human Caco2 cells; conditions: Caco-2
[16] = biological target: T1, Cytochrome P450 3A4; assay: Inhibition of CYP3A4-mediated testosterone metabolism in human liver microsomes
[17] = test system: Klebsiella pneumoniae; assay: Antibacterial activity against tolC-deficient Klebsiella pneumoniae 1161486a after 20 to 22 hrs; assay type: functional
[18] = test system: Escherichia coli; assay: Antibacterial activity against Escherichia coli K-12 MG1655 after 20 to 22 hrs; conditions: K-12 substr. MG1655
[19] = Unbound concentration in Swiss mouse plasma at 30 mg/kg, iv administered as single bolus dose measured at 5 mins by LC-MS/MS method; assay type: ADME, organism-based; conditions: in vivo
[20] = test system: Escherichia coli; assay: Antibacterial activity against Escherichia coli ATCC 35218 in Swiss mouse septicemia model assessed as mouse survival at 30 mg/kg, iv bid administered at 1 and 3 hrs post infection measured at 96 hrs relative to vehicle-treated control; assay type: functional; conditions: ATCC 35218, iv
[21] = test system: Pseudomonas aeruginosa; assay: Antibacterial activity against Pseudomonas aeruginosa PAO1 after 20 to 22 hrs; assay type: functional
[22] = test system: Staphylococcus aureus; assay: Antibacterial activity against methicillin-resistant Staphylococcus aureus ATCC 33592 after 20 to 22 hrs in presence of 50% calf fetal serum; assay type: functional, organism-based
[23] = Drug uptake in Swiss mouse liver at 30 mg/kg, iv administered as single bolus dose by LC-MS/MS method; assay type: ADME, organism-based; conditions: in vivo
[24] = test system: L5178Y; assay: Genotoxicity in mouse L5178Y cells after 23 hrs in absence of S9 fraction by micronucleus test; assay type: toxicity, cell-based
[25] = Half life in Swiss mouse plasma at 30 mg/kg, iv administered as single bolus dose by LC-MS/MS method; assay type: ADME, organism-based
[26] = test system: Mus musculus; assay: Time during which free kidney concentration exceeds in vitro MIC for Escherichia coli ATCC 35218 in Swiss mouse at 30 mg/kg, iv administered as single bolus dose by LC-MS/MS method; assay type: ADME, organism-based; conditions: in vivo
[27] = test system: Escherichia coli; assay: Antibacterial activity against ESBL producing Escherichia coli ATCC 35218 after 20 to 22 hrs; assay type: functional
[28] = Drug metabolism in rat liver microsomes at 5 uM after 20 mins in presence of NADPH; assay type: ADME, microsome; conditions: read-out: Drug metabolism
[29] = test system: Mus musculus; assay: Time during which free lung concentration exceeds in vitro MIC for Escherichia coli ATCC 35218 in Swiss mouse at 30 mg/kg, iv administered as single bolus dose by LC-MS/MS method; assay type: ADME, organism-based; conditions: in vivo
[30] = Thermodynamic aqueous solubility of the compound at pH 7.4; conditions: aqueous solution
[31] = Drug uptake in Swiss mouse lung at 30 mg/kg, iv administered as single bolus dose by LC-MS/MS method; assay type: ADME, organism-based; conditions: in vivo
[32] = Metabolic stability in rat plasma at 1 uM after 4 hrs; assay type: ADME, cell-free; conditions: read-out: Stability
[33] = Drug uptake in Swiss mouse kidney at 30 mg/kg, iv administered as single bolus dose by LC-MS/MS method; assay type: ADME, organism-based; conditions: in vivo
[34] = Drug metabolism in human liver microsomes at 5 uM after 20 mins in presence of NADPH; assay type: ADME, microsome; conditions: read-out: Drug metabolism
[35] = biological target: Muscarinic acetylcholine receptor M3 (Homo sapiens) (UniProt P20309); assay: Inhibition of M3 receptor (unknown origin) at 10 uM relative to control
[36] = test system: Escherichia coli; assay: Antibacterial activity against Escherichia coli ATCC 35218 in Swiss mouse septicemia model assessed as mouse survival at 15 mg/kg, iv bid administered at 1 and 3 hrs post infection measured at 96 hrs relative to vehicle-treated control; assay type: functional; conditions: ATCC 35218, iv
[37] = Cytotoxicity against human HepG2 cells assessed as decrease in cell viability after 40 hrs by Celltiter Glo assay
[38] = biological target: T2, Muscarinic acetylcholine receptor M1 (Homo sapiens) (UniProt P11229); assay: Inhibition of M1 receptor (unknown origin) at 10 uM relative to control
T2 sequence (whole entry): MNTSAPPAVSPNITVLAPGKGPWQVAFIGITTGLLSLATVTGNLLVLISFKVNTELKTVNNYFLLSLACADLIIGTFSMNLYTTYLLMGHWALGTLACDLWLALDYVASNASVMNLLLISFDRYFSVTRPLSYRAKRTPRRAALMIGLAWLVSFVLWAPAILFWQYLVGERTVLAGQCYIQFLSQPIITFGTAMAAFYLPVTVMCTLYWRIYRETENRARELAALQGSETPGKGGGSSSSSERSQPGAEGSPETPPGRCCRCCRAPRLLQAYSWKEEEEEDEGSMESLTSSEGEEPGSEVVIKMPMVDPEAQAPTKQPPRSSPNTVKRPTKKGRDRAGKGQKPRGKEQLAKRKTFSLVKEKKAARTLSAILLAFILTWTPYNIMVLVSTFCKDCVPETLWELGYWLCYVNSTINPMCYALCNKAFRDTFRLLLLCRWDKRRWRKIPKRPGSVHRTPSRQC

[39] = test system: Mus musculus; assay: Time during which free liver concentration exceeds in vitro MIC for Escherichia coli ATCC 35218 in Swiss mouse at 30 mg/kg, iv administered as single bolus dose by LC-MS/MS method; assay type: ADME, organism-based; conditions: in vivo
[40] = test system: Acinetobacter baumannii; assay: Antibacterial activity against Acinetobacter baumannii BM4454 after 20 to 22 hrs; assay type: functional
[41] = AUC (0 to last) in Swiss mouse plasma at 30 mg/kg, iv administered as single bolus dose by LC-MS/MS method; assay type: ADME, organism-based; design: dose 30 mg/kg, route intravenous, time 0 - last
[42] = Protein binding in mouse plasma by equilibrium dialysis method; assay type: ADME, cell-free; conditions: read-out: PPB (converted)
[43] = test system: Pseudomonas aeruginosa; assay: Antibacterial activity against Pseudomonas aeruginosa PAO750 harboring mexAB-oprM/mexCD-oprJ/mexEF-oprN/mexXY/opmH/mexJK/pscC deletion mutant after 20 to 22 hrs; assay type: functional

T1 sequence (P08684 whole entry): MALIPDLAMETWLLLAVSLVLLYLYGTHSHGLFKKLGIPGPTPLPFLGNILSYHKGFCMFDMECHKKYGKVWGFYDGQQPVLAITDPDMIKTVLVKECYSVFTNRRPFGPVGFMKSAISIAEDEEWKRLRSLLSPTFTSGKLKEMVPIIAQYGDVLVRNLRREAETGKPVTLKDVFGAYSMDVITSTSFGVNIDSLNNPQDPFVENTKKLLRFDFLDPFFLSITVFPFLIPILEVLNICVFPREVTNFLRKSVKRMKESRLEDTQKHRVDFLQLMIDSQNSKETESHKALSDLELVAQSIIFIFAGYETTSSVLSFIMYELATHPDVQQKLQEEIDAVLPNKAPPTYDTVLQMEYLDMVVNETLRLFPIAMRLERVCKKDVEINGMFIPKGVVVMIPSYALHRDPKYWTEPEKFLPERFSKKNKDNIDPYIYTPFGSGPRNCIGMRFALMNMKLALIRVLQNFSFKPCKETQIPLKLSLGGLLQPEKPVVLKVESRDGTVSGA
Chain of Muscarinic acetylcholine receptor M3 (Homo sapiens) (P20309 whole entry, looked up): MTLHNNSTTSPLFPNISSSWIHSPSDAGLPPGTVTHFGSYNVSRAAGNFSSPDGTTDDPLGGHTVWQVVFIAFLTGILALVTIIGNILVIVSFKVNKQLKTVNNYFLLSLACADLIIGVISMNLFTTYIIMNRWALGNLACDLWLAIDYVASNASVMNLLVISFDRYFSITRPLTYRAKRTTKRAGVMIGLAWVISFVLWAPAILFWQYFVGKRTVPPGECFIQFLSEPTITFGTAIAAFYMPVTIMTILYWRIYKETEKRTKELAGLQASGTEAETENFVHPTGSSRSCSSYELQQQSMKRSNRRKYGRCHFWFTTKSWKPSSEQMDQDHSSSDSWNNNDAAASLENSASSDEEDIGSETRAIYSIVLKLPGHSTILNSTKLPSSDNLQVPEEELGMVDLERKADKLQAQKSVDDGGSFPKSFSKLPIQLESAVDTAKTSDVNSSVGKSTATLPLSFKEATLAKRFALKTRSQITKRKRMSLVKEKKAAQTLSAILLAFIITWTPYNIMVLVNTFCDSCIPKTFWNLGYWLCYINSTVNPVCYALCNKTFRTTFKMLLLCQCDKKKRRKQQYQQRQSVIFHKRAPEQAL
Chain of Voltage-gated inwardly rectifying potassium channel KCNH2 (Q12809 whole entry): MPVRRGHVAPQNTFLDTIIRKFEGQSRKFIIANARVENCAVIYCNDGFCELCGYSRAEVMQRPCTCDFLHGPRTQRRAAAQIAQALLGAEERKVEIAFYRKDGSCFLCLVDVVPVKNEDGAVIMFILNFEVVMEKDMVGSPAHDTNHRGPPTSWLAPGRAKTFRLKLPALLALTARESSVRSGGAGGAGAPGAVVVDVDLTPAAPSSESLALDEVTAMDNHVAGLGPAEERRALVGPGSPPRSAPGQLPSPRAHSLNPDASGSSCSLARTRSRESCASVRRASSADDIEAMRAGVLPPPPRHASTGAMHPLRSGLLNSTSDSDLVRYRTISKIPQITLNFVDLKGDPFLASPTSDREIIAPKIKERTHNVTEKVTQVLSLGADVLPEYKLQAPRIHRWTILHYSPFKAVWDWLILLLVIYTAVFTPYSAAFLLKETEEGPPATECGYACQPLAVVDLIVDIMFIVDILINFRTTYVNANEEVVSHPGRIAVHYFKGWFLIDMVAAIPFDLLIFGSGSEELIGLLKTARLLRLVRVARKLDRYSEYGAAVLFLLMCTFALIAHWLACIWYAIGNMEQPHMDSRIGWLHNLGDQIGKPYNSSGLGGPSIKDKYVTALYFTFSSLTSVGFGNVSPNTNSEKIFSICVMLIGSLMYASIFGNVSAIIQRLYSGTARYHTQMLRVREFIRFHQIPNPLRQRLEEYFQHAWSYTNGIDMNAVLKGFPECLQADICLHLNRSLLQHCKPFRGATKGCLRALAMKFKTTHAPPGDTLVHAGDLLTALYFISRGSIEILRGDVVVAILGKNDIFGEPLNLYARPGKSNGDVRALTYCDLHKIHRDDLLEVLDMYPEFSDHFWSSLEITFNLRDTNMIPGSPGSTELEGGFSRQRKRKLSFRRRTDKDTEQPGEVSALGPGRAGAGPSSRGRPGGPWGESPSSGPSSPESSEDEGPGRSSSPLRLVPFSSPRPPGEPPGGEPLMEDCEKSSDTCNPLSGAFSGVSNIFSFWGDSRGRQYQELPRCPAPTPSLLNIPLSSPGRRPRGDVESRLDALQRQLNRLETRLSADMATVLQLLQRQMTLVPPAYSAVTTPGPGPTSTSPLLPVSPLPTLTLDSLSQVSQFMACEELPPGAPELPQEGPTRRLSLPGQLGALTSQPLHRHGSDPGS

Structure (SMILES): N[C@H]1CCN(c2cc3c(cc2F)n2ncnc2c(=O)n3C2CC2)C1
- MIC [1]: 1 µg/mL (≈ 3.05 µM)
- Activity [2]: Non-Toxic
- Activity [3]: Toxic
- MIC [4]: < 0.125 µg/mL
- MIC [5]: 32 µg/mL (≈ 97.5 µM)
- Activity [6]: 3.2 deltalog10CFU/ml
- metabolised at 20 min, 5 µM [7]: 8%
- IC50 [8]: > 30 µM
- Activity [9]: 1.6 deltalog10CFU/ml
- MIC [10]: 4 µg/mL (≈ 12.2 µM)
- remaining at 4 h, 1 µM [11]: 80 to 120%
- IC50 [12]: > 30 µM
- Activity [13]: Active
- MIC [14]: 4 µg/mL (≈ 12.2 µM)
- Papp [15]: 3.2 ×10⁻⁶ cm/s
- IC50 [16]: > 30 µM
- MIC [17]: 0.5 µg/mL (≈ 1.52 µM)
- MIC [18]: 4 µg/mL (≈ 12.2 µM)
- Cp(f) [19]: 2500 ng/mL
- survival at 30 mg/kg [20]: 30%
- MIC [21]: > 64 µg/mL
- Activity [22]: Active
- Drug uptake [23]: Active
- Activity [24]: Toxic
- half-life [25]: 1 h
- Time [26]: 2 h
- MIC [27]: 2 µg/mL (≈ 6.09 µM)
- metabolised at 20 min, 5 µM [28]: 8%
- Time [29]: 2 h
- solubility thermodynamic [30]: 926 µg/mL (≈ 2820 µM)
- Drug uptake [31]: Active
- remaining at 4 h, 1 µM [32]: 80 to 120%
- Drug uptake [33]: Active
- metabolised at 20 min, 5 µM [34]: 0%
- inhibition [35]: 50 to 60%
- survival at 15 mg/kg [36]: 0%
- CC50 at 40 h [37]: > 30 µM
- inhibition [38]: 50 to 60%
- Time [39]: 2 h
- MIC [40]: > 64 µg/mL
- AUC(0-t) [41]: 7200 ng·h/mL
- fraction unbound [42]: 0.38
- MIC [43]: 1 µg/mL (≈ 3.05 µM)
